Patent US20200360466A1, “METHOD OF IMPROVING LOWER URINARY TRACT SYMPTOMS” (Nymox Corporation, priority 2019, published 2020)
Where no end group is shown, it is not given here.

Columns and labels:
Format in all cases: in vivo, human
[1] = system: patients with BPH who optionally also had LUTS; assay: IPSS symptom evaluation after a single intraprostatic injection of FT or PBS, double-blind (Example One)
Procedure: Patients with BPH and who optionally also had LUTS were given an intraprostatic injection of either a) FT (SEQ ID NO. 1 (Ile-Asp-Gln-Gln-Val-Leu-Ser-Arg-Ile-Lys-Leu-Glu-Ile-Lys-Arg-Cys-Leu), 2.5 mg) in phosphate buffered saline pH 7.2 (“PBS”) or b) PBS alone, under double-blind conditions by a urologist in an office setting under ultrasound guidance. Patients were followed for 1 to 6 years with regular physical examinations, laboratory tests, and evaluations of symptoms. Symptomatic evaluation was measured by the International Prostate Symptom Score (IPSS) which is a quantitative scale used to gauge prostatic symptomatic improvement or worsening. The IPSS quantifies the following: 1) incomplete bladder emptying after urination; 2) frequent urination; 3) stopping and starting during urination; 4) urgent need to urinate; 5) weakness of urinary stream; 6) need to push or strain during urination; 7) need to urinate after going to sleep at night (nocturia).
IPSS items 1, 3, 5 and 6 comprise the obstructive voiding scales and IPSS items 2, 4, and 7 comprise the irritative storage scales. The difference from baseline irritative storage scores to follow-up scores; and from baseline obstructive voiding scores to follow-up scores were calculated in FT treated subjects and Placebo treated controls.

[2] = system: patients with BPH who also optionally had LUTS; assay: IPSS obstructive voiding scores after placebo injection followed by cross-over FT injection (Example Three)
Description: In a third analysis group, patients with BPH who also optionally had LUTS were given an intraprostatic injection of PBS pH 7.2 vehicle alone, under double-blind conditions by a urologist in an office setting under ultrasound guidance. Patients were followed for 1 to 3 years with regular physical examinations, laboratory tests, and evaluations of symptoms. 131 patients who received PBS vehicle alone injections after 1-3 years received a cross-over injection of FT (SEQ ID NO. 1 (Ile-Asp-Gln-Gln-Val-Leu-Ser-Arg-Ile-Lys-Leu-Glu-Ile-Lys-Arg-Cys-Leu), 2.5 mg) in phosphate buffered saline pH 7.2 (“PBS”). The differences from baseline obstructive voiding scores to follow-up scores were calculated in blinded placebo treated patients (Group One); blinded placebo treated patients who received subsequent conventional oral BPH medications (Group Two), and blinded placebo treated patients who subsequently received FT treatment (Group Three).

[3] = system: patients with BPH who also optionally had LUTS; assay: IPSS obstructive voiding scores in all patients who received FT versus placebo alone (Example Four); details: Table 4, all FT-treated patients vs placebo alone
Description: In a fourth analysis group, patients with BPH who also optionally had LUTS were given an intraprostatic injection of PBS pH 7.2 vehicle alone or of FT, under double-blind conditions by a urologist in an office setting under ultrasound guidance. Patients were followed for 1 to 3 years with regular physical examinations, laboratory tests, and evaluations of symptoms. 217 patients received double blind placebo alone (Group One). 287 patients received double blind FT alone (Group Two). After 1-3 years, 131 patients who received PBS vehicle alone injections received a cross-over injection of FT (Group Three). The final group of 189 patients received blinded FT followed after 1-3 years by a second injection of FT (Group Four). The difference from baseline obstructive voiding scores to follow-up scores were calculated in blinded placebo treated patients (n=217), and compared to groups 2-4 who received FT treatment (n=607).

[4] = Table 1, single FT injection vs PBS control
[5] = general statement in the description

Q: With “Ile-Asp-Gln-Gln-Val-Leu-Ser-Arg-Ile-Lys-Leu-Glu-Ile-Lys-Arg-Cys-Leu (IDQQVLSRIKLEIKRCL; also: trifluoroacetate salt) [SEQ ID NO: 1-FT, 17-mer peptide …]” as the substance, how does the “improvement in MISS measured by IPSS compared to control composition that does not contain FT” value [1, 4] read?
A: more than 34%

Q: And the “improvement in MOVS measured by IPSS compared to control composition that does not contain FT” value [1, 4]?
A: more than 46%

Q: What about the “improvement in MISS measured by IPSS compared to control composition that does not contain FT” value [1, 5] of the same substance?
A: more than 20%

Q: And the “improvement in MOVS measured by IPSS compared to control composition that does not contain FT” value [1, 5]?
A: more than 30%

Q: What about the “improvement in MOVS measured by IPSS compared to placebo control followed by conventional oral BPH medication” value ([2]; Table 3, cross-over FT injection) of the same substance?
A: more than 320%

Q: What about the “improvement in MOVS measured by IPSS compared to control composition that does not contain FT” value ([2]; Table 3, cross-over FT injection vs placebo alone) of the same substance?
A: more than 104%

Q: What about the “improvement in MOVS measured by IPSS compared to control composition that does not contain FT” value [3] of the same substance?
A: more than 105%
